The values that follow come from US11173192B2 (priority 2016, dated 2021).

Assay [1] deals with PR8-infected RAW264.7 cells. The assay is classed as cell-based. The following applies: RAW264.7 cells stably overexpressing EPRS vs empty vector.
A further assay relates to PR8. In kind it is cell-based, PR8 influenza A virus.

On to “EPRS: glutamyl-prolyl-tRNA synthetase protein, 1512 aa, SEQ ID NO: 63; expressed from plasmid or purified”, for which, in assay [1], the “IFN-β production following infection with PR8” value was “more production of IFN-β and IL-6”; the “IL-6 production following infection with PR8” value is “more production of IFN-β and IL-6”. Also, the “viral replication following infection with PR8” value with PR8 is recorded as “significantly less viral replication”.
